From patent publication US12622910B2, “Inhibitors of Bruton's tyrosine kinase and methods of their use” (Janssen Pharmaceutica NV, priority 2021, dated 2026)

Key:
[1] = tested on: IL-10 secretion, ABC-DLBCL OCI-LY-10 cells; test: IL-10 secretion by OCI-LY-10 cells (MesoScale); type: cell-based; settings: Homo sapiens, OCI-Ly10; 6 independent experiments; read-out: IC50, IL-10 secretion (mean±SEM)
Method: In Vitro Activity in DLBCL Cell Lines—NFκB signaling regulates the secretion of multiple cytokines, including interleukin (IL)-6 and IL-10. Secretion of IL-6 and -10 by ABC-DLBCL OCI-LY-10 cells was measured using a MesoScale assay. […] To determine the anti-proliferative activity of the compound of formula (III), several ABC-DLBCL cell lines—OCI-LY-3, OCI-LY-10, TMD8, and HBL-1—were treated for 8 days. […] The OCI-LY-3 cell line, which harbors a CARD11 mutation downstream of BTK in the NF-κB signaling pathway, was completely insensitive to the compound of Formula (III) up to 2 μM. In 2 experiments, OCI-LY-3 cells were insensitive to the compound of Formula (III) at all concentrations up to 10 μM.

AhR = test: Puracyp DRE luciferase-reporter cell line (CYP1A2 induction); type: in vitro ADME
Method: To assess the potential of the compound of Formula (III) to be a time-dependent inhibitor of CYP3A, human liver microsomes were preincubated for 30 minutes at 37° C. with the compound of Formula (III) at concentrations up to 10 μM, and CYP3A activity was measured using testosterone as a probe substrate. […] The potential of the compound of Formula (III) to induce CYPs at the transcriptional level was assessed using Puracyp™ DPX2 (CYP3A4, PXR) and DRE (CYP1A2, AhR) luciferase-reporter cell lines; rifampicin and omeprazole were used as positive controls for CYP3A and CYP1A induction, respectively. The activation by the compound of Formula (III) was <20% of positive control values for PXR (6.6% and 14.1% at 1 and 10 μM change, respectively) or AhR (0.1% and 0.3% change, respectively). […] Potential involvement of various CYP isoforms in the metabolism of the compound of Formula (III) was investigated by measuring the parent compound remaining after 1-hour incubation with the compound of Formula (III) (1 μM) with recombinant CYPs (rCYPs) at 100 pmol P450/mL in the presence of 1 mM NADPH at 37° C. The only isozyme that produced notable the compound of Formula (III) turnover with <1% parent remaining after 1-hour incubation was CYP3A4 (FIG. 24). […]

SMILES: C=CC(=O)N[C@H]1CCC[C@H]1NC(=O)c1sc2nccc3c2c1NC(=O)N3c1cnc(CC(C)C)cc1C (atropisomer, axis not shown) [compound of Formula (III), N-((1R,2S)-2-Acrylamidocyclopentyl)-5-(S)-(6-isobutyl-4-methylpyridin-3-yl)-4-oxo-4,5-dihydro-3H-1-thia-3,5,8-triazaacenaphthylene-2-carboxamide]
- IC50 [1]: 18 ± 7 nM
- AhR activation, % of positive control (omeprazole) (AhR; 1 μM): 0.1%
- AhR activation, % of positive control (omeprazole) (AhR; 10 μM): 0.3%
